This passage reports IA and ED50 results from ChEMBL document CHEMBL1148418, “BMS-201620: a selective beta 3 agonist” (Bioorg Med Chem Lett, 2004).

A word on the ED50: it is the dose at which the effect has come halfway, by size or by number of responders.

Structures are written as SMILES.

For one test, the species on record is Cavia porcellus. Briefly: Intrinsic activity was determined using spontaneously beating guinea pig atria by measuring contraction acceleration relative to isoproterenol response. The format is functional.
Conditions: not given
The compound `COc1ccc([C@](C)(NC[C@H](O)c2ccc(O)c(NS(C)(=O)=O)c2)C(=O)Nc2cccc(C)c2)cc1` registered an IA of 73%.

Take `COc1ccc([C@](C)(NC[C@H](O)c2ccc(O)c(NS(C)(=O)=O)c2)C(=O)Nc2ccc(Cl)cc2F)cc1`: the IA is 43%.

The compound `COc1ccc([C@](C)(NC[C@H](O)c2ccc(O)c(NS(C)(=O)=O)c2)C(=O)Nc2cccc(Cl)c2)cc1` returned an IA of 50%.

In the case of `COc1ccc([C@](C)(NC[C@H](O)c2ccc(O)c(NS(C)(=O)=O)c2)C(=O)Nc2ccc(O)cc2)cc1`, the IA is recorded as 90%.

For `COc1ccc([C@](C)(NC[C@H](O)c2ccc(O)c(NS(C)(=O)=O)c2)C(=O)Nc2cc(Cl)cc(Cl)c2)cc1`, the IA is on record as 13%.

Regarding `COc1ccc([C@](C)(NC[C@H](O)c2ccc(O)c(NS(C)(=O)=O)c2)C(=O)Nc2ccc(Cl)c(Cl)c2)cc1`, the IA is recorded as 8%.

The compound `COc1ccc([C@](C)(NC[C@H](O)c2ccc(O)c(NS(C)(=O)=O)c2)C(=O)Nc2cccc(OC)c2)cc1` yielded an IA of 85%.

The compound `COc1ccc([C@](C)(NC[C@H](O)c2ccc(O)c(NS(C)(=O)=O)c2)C(=O)Nc2cc(OC)c(OC)c(OC)c2)cc1` registered an IA of 66%.

`COc1ccc([C@](C)(NC[C@H](O)c2ccc(O)c(NS(C)(=O)=O)c2)C(=O)Nc2cccc(CN)c2)cc1` came in with an IA of 91%.

In turn, `COc1ccc([C@](C)(NC[C@H](O)c2ccc(O)c(NS(C)(=O)=O)c2)C(=O)Nc2ccccc2C)cc1` returned an IA of 83%.

`COc1ccc([C@](C)(NC[C@H](O)c2ccc(O)c(NS(C)(=O)=O)c2)C(=O)Nc2cccc(Br)c2)cc1`: the IA is 50%.

`COc1ccc([C@](C)(NC[C@H](O)c2ccc(O)c(NS(C)(=O)=O)c2)C(=O)Nc2ccc(C)cc2)cc1` had an IA of 90%.

For `COc1ccc([C@](C)(NC[C@H](O)c2ccc(O)c(NS(C)(=O)=O)c2)C(=O)Nc2cccc(O)c2)cc1`, the IA stood at 96%.

`COc1ccc([C@](C)(NC[C@H](O)c2ccc(O)c(NS(C)(=O)=O)c2)C(=O)Nc2ccc(Cl)cc2)cc1` showed an IA of 62%.

Turning to `CCOP(=O)(Cc1ccc(NC(=O)[C@@](C)(NC[C@H](O)c2ccc(O)c(NS(C)(=O)=O)c2)c2ccc(OC)cc2)cc1)OCC`, the IA is listed as 55%.

Turning to `COc1ccc([C@](C)(NC[C@H](O)c2ccc(O)c(NS(C)(=O)=O)c2)C(=O)Nc2ccccc2OC)cc1`, the IA is 60%.

As for `COc1ccc([C@](C)(NC[C@H](O)c2ccc(O)c(NS(C)(=O)=O)c2)C(=O)Nc2cccc(OCC(=O)O)c2)cc1`, the IA was 87%.

Compound `COc1ccc([C@](C)(NC[C@H](O)c2ccc(O)c(NS(C)(=O)=O)c2)C(=O)Nc2ccc(OCC(=O)O)cc2)cc1` registered an IA of 100%.

As to `COc1ccc([C@](C)(NC[C@H](O)c2ccc(O)c(NS(C)(=O)=O)c2)C(=O)Nc2cccc(OCCN(C)C)c2)cc1`, the IA is given as 85%.

As for `COc1ccc([C@](C)(NC[C@H](O)c2ccc(O)c(NS(C)(=O)=O)c2)C(=O)Nc2ccc3sc(C)nc3c2)cc1`, the IA is reported as 70%.

The compound `COc1ccc([C@](C)(NC[C@H](O)c2ccc(O)c(NS(C)(=O)=O)c2)C(=O)Nc2ccc(OC)c(OC)c2)cc1` gave an IA of 89%.

On to `COc1ccc([C@](C)(NC[C@H](O)c2ccc(O)c(NS(C)(=O)=O)c2)C(=O)Nc2cc(Cl)c(Cl)c(Cl)c2)cc1`, for which the IA stood at 15%.

In the case of `COc1ccc([C@](C)(NC[C@H](O)c2ccc(O)c(NS(C)(=O)=O)c2)C(=O)Nc2ccc(OCCN(C)C)cc2)cc1`, the IA was 92%.

`COc1ccc(NC(=O)[C@@](C)(NC[C@H](O)c2ccc(O)c(NS(C)(=O)=O)c2)c2ccc(OC)cc2)cc1`: the IA is 85%.

`COc1ccc([C@H](NC[C@H](O)c2ccc(O)c(NS(C)(=O)=O)c2)C(=O)Nc2ccccc2)cc1` (stereo in doubt; 16) yielded an IA of 95%.

As to `COc1ccc([C@H](NC[C@H](O)c2ccc(O)c(NS(C)(=O)=O)c2)C(=O)Nc2ccc3c(c2)OCO3)cc1` (stereo in doubt; 17), the IA is 93%.

The test system of a further test is Monkey. Briefly: Compound was tested for in vivo lipolysis in african green monkeys after iv administration. Format: functional. Particulars: Cercopithecidae, in Primates.
Take `COc1ccc([C@](C)(NC[C@H](O)c2ccc(O)c(NS(C)(=O)=O)c2)C(=O)Nc2ccc(Cl)cc2)cc1`: the ED50 worked out at 0.07 mg/kg.

For the compound `CCOP(=O)(Cc1ccc(NC(=O)[C@@](C)(NC[C@H](O)c2ccc(O)c(NS(C)(=O)=O)c2)c2ccc(OC)cc2)cc1)OCC`, the 50% effect level (ED50) was put at a dose of 0.1 mg/kg.

Compound `COc1ccc([C@H](NC[C@H](O)c2ccc(O)c(NS(C)(=O)=O)c2)C(=O)Nc2ccc3c(c2)OCO3)cc1` (stereo in doubt; 17) returned an ED50 of 0.08 mg/kg.
